Results on 16 compounds are retold here after patent US8906929B2, “Inhibitors of human immunodeficiency virus replication” (priority 2012, dated 2014).

Broadly, the EC50 is the concentration giving half of the maximal effect.

The first experiment concerns recombinant NL-Rluc virus. In words: Inhibition of HIV replication (NL-RLuc virus in MT-2 cells, luciferase readout). It counts as cell-based. As to conditions: 5 days of incubation, 10% FBS.
Consider `Cc1nc2cc3nn2c(c1[C@H](OC(C)(C)C)C(=O)O)-c1ccc2c(c1)C(CCCCCc1ccccc1-c1cccc-3c1)CCO2` (single isomer, unassigned) [Example 8], for which the EC50 came to 0.051 µM.
Regarding `Cc1nc2cc3nn2c(c1[C@H](OC(C)(C)C)C(=O)O)-c1ccc2c(c1)C(CCCCCc1ccccc1-c1cccc-3c1)CCO2` (single isomer, unassigned) [Example 9], the EC50 was 3.68 µM.
`Cc1nc2cc3nn2c(c1[C@H](OC(C)(C)C)C(=O)O)-c1ccc2c(c1)C(CCCCc1ccccc1-c1cccc-3c1)CCO2` (single isomer, unassigned) [Example 10]: the EC50 worked out at 0.237 µM.
On the same count and under the same terms, the value for `Cc1nc2cc3nn2c(c1[C@H](OC(C)(C)C)C(=O)O)-c1ccc2c(c1)C(CCCCc1ccccc1-c1cccc-3c1)CCO2` (single isomer, unassigned) [Example 11] was 1.27 µM.
Still for that read-out and setting: for `Cc1ccc2c(c1)-c1cccc(c1)-c1cc3nc(C)c([C@H](OC(C)(C)C)C(=O)O)c(n3n1)N1CCC(C)(CC1)OCCCC(C)C(C)O2` (single isomer, unassigned) [Example 92] the value was 0.968 µM; for `Cc1ccc2c(c1)-c1cccc(c1)-c1cc3nc(C)c([C@H](OC(C)(C)C)C(=O)O)c(n3n1)N1CCC(C)(CC1)OCCCC(C)C(C)O2` (single isomer, unassigned) [Example 93], 0.095 µM; for `Cc1ccc2c(c1)-c1cccc(c1)-c1cc3nc(C)c([C@H](OC(C)(C)C)C(=O)O)c(n3n1)N1CCC(C)(CC1)OCCCC(C)C(C)O2` (single isomer, unassigned) [Example 94], 0.035 µM.
The same measure, in the same setting: the value for `Cc1ccc2c(c1)-c1cccc(c1)-c1cc3nc(C)c([C@H](OC(C)(C)C)C(=O)O)c(n3n1)N1CCC(C)(CC1)OCCCC(C)C(C)O2` (single isomer, unassigned) [Example 95] was 0.036 µM; that for `Cc1ccc2c(c1)-c1cccc(c1)-c1cc3nc(C)c([C@H](OC(C)(C)C)C(=O)O)c(n3n1)N1CCC(C)(CC1)OCCCC(C)CO2` (single isomer, unassigned) [Example 104] was 0.026 µM.

Staying with this experiment, now noted: Human immunodeficiency virus 1, MT2, 120 h, 5 days of incubation, 10% FBS.
Take `Cc1nc2cc3nn2c(c1[C@H](OC(C)(C)C)C(=O)O)-c1ccc2c(c1)[C@H](CCCCOc1ccccc1-c1cccc-3c1)CCO2` (single isomer, unassigned) [Example 12]: the EC50 is 0.007 µM.
For the compound `Cc1nc2cc3nn2c(c1[C@H](OC(C)(C)C)C(=O)O)-c1ccc2c(c1)[C@@H](CCCCOc1ccccc1-c1cccc-3c1)CCO2` (single isomer, unassigned) [Example 13], the EC50 was 0.216 µM.
Still for that read-out and setting: the value for `Cc1nc2cc3nn2c(c1[C@H](OC(C)(C)C)C(=O)O)-c1ccc2c(c1)[C@@H](CC=CCOc1ccccc1-c1cccc-3c1)CCO2` (single isomer, unassigned) [Example 14] was 0.383 µM.
Same read-out and setting: for `Cc1nc2cc3nn2c(c1[C@H](OC(C)(C)C)C(=O)O)-c1ccc2c(c1)[C@H](CC=CCOc1ccccc1-c1cccc-3c1)CCO2` (single isomer, unassigned) [Example 15] the value was 0.004 µM.
On the same count and under the same terms, the value for `Cc1nc2cc3nn2c(c1[C@H](OC(C)(C)C)C(=O)O)N1CCC(C)(CC1)OCC=C[C@@H](C)Oc1ccccc1-c1cccc-3c1` (single isomer, unassigned) [Example 22] was 0.036 µM.
For `Cc1ccc2c(c1)-c1cccc(c1)-c1cc3nc(C)c([C@H](OC(C)(C)C)C(=O)O)c(n3n1)N1CCC(C)(CC1)OCCCC(C)CO2` (single isomer, unassigned) [Example 103], the half-maximal effective concentration (EC50) was determined as 0.025 µM.
The same measure, in the same setting: for `Cc1nc2cc3nn2c(c1[C@H](OC(C)(C)C)C(=O)O)-c1ccc2c(c1Cl)N(C/C=C\CCc1cccc(c1)-c1cccc-3c1)CCO2` [Example 1, (2S)-2-(tert-Butoxy)-2-[(22Z)-32-chloro-4-methyl-28-oxa-5,7,8,25-tetraazaheptacyclo[23.6.2.1^6,^9.1^10,^14.1^15,^19.0^2,^7.0^29,^33]hexatriaconta-1(31),2,4,6(36),8,10(35), 11,13,15(34), 16,18,22,29,32-tetradecaen-3-yl]acetic acid] the value was 0.853 µM.
